For 13 compounds, Anti-SARS-CoV-2 activity, CC50 and IC50 results are on record in US20240209027A1, “PEPTIDE AND PEPTIDE-CONTAINING COMPOSITION” (PeptiAID Inc.,, priority 2021, published 2024).

Usually IC50 stands for the concentration that inhibits the measured activity by half.

Where two headings read alike, the source gives them in different places. Starred links: 1 amine or outer side, 2 acyl side, 3 side chain; linkers in the order of their positions; H or OH if unused. Positions of bridges follow the written chain, without caps; N, C: chain ends. Non-standard residues stand in square brackets, D forms with d. Residues, ends and D or L forms follow the SMILES beside them. Chains are numbered I, II in the order given. *: point of attachment. X5 = O=C(O)CCCCCCCCCCCCC(=O)N[C@@H](CCC(=O)N[C@@H](CCCCN*)C(=O)O)C(=O)O; X4 = O=C(O)CCCCCCCCCCC(=O)N[C@@H](CCC(=O)N[C@@H](CCCCN*)C(=O)O)C(=O)O; Ala(piperidin-4-yl) = O=C([C@H](CC1CCN([*:3])CC1)N[*:1])[*:2]; Phe(4-COOH) = N[C@@H](Cc1ccc(C(=O)O)cc1)C(=O)O; X3 = O=C(O)CN1CCC(N[*:1])(C(=O)[*:2])CC1; Phe(4-F) = N[C@@H](Cc1ccc(F)cc1)C(=O)O; C12 diacid = O=C(O)CCCCCCCCCCC(=O)*; NMeF = CN[C@@H](Cc1ccccc1)C(=O)O; X1 = C[C@@H](Cc1ccc(O)cc1)C(=O)*; NMeE = CN[C@@H](CCC(=O)O)C(=O)O; dNMeE = CN[C@H](CCC(=O)O)C(=O)O; Cha = N[C@@H](CC1CCCCC1)C(=O)O; Cit = NC(=O)NCCC[C@H](N)C(=O)O; dNMeD = CN[C@H](CC(=O)O)C(=O)O; NMeNle = CCCC[C@H](NC)C(=O)O; hCys = N[C@@H](CCS)C(=O)O; X2 = O=C(C[*:1])[*:2]; Aib = CC(C)(N)C(=O)O Some results are limits rather than exact numbers.

In data set [1] the test system is SARS-CoV-2 (JPN/TY/WK-521 strain). Format: cell-based. Further details: key: the case where the peptide was found to have anti-SARS-CoV-2 activity when added at 50 nM was designated as “2”; the case where no activity was found upon the addition at 50 nM but the activity was found at 1 μM was designated as “1”. To be noted: peptide added at 50 nM or 1 μM.
Another data set in a line: in vitro. The conditions noted are these: African green monkey.
Data set [2] concerns SARS-CoV2 (USA WA1/2020 strain). To be noted: 72 h.

As to `CCCC[C@H]1C(=O)NC(C)(C)C(=O)N[C@@H](CC2CCCCC2)C(=O)N[C@@H](Cc2ccc(F)cc2)C(=O)N[C@H](CC(=O)O)C(=O)N[C@@H](Cc2ccc(O)cc2)C(=O)N[C@@H](Cc2ccc(O)cc2)C(=O)N[C@@H](Cc2ccc(C(=O)O)cc2)C(=O)N[C@H](CCCNC(=N)N)C(=O)N[C@@H](CC2CCCCC2)C(=O)N[C@H](C(N)=O)CSCC(=O)N(C)[C@@H](CCC(=O)O)C(=O)N1C` [Peptide 5555_p003] ({CH2CO}-[NMeE][NMeNle][Aib][Cha][Phe(4-F)][dD]YY[Phe(4-COOH)][dR][Cha]C-NH2; thioether N-12), in data set [1], the Anti-SARS-CoV-2 activity was determined as 2. In the data set “in vitro”, this compound yielded a CC50 at 72 h greater than 100000 nM. Also, the IC50 in data set [2] is 4.5 nM.
The compound `CCCC[C@H]1C(=O)NC(C)(C)C(=O)N[C@@H](CC2CCCCC2)C(=O)N[C@@H](Cc2ccc(F)cc2)C(=O)N[C@H](CC(=O)O)C(=O)N[C@@H](Cc2ccc(O)cc2)C(=O)N[C@@H](Cc2ccc(O)cc2)C(=O)N[C@@H](Cc2ccc(C(=O)O)cc2)C(=O)N[C@@H](CC2CCNCC2)C(=O)N[C@@H](CC2CCCCC2)C(=O)N[C@H](C(=O)N[C@H](CCC(=O)O)C(N)=O)CSCC(=O)N(C)[C@@H](CCC(=O)O)C(=O)N1C` [Peptide 5555_p026] ({CH2CO}-[NMeE][NMeNle][Aib][Cha][Phe(4-F)][dD]YY[Phe(4-COOH)][Ala(piperidin-4-yl)][Cha]C[dE]-NH2; thioether N-12) had an Anti-SARS-CoV-2 activity in data set [1] of 2. This compound yielded an IC50 in data set [2] of 8.1 nM.
In turn, `CCCC[C@H]1C(=O)NC(C)(C)C(=O)N[C@@H](CC2CCCCC2)C(=O)N[C@@H](Cc2ccc(F)cc2)C(=O)NC2(CCN(CC(=O)O)CC2)C(=O)N[C@@H](Cc2ccc(O)cc2)C(=O)N[C@@H](Cc2ccc(O)cc2)C(=O)N[C@@H](Cc2ccc(C(=O)O)cc2)C(=O)N[C@@H](CC2CCNCC2)C(=O)N[C@@H](CC2CCCCC2)C(=O)N[C@H](C(=O)N[C@H](CCC(=O)O)C(N)=O)CSCC(=O)N(C)[C@@H](CCC(=O)O)C(=O)N1C` [Peptide 5555_p173] ({CH2CO}-[NMeE][NMeNle][Aib][Cha][Phe(4-F)][X3]YY[Phe(4-COOH)][Ala(piperidin-4-yl)][Cha]C[dE]-NH2; thioether N-12) came in with an IC50 with SARS-CoV-2 Wuhan strain of 6.8 nM.
As for `CCCC[C@H]1C(=O)NC(C)(C)C(=O)N[C@@H](CC2CCCCC2)C(=O)N[C@@H](Cc2ccc(F)cc2)C(=O)N(C)[C@H](CC(=O)O)C(=O)N[C@@H](Cc2ccc(O)cc2)C(=O)N[C@@H](Cc2ccc(O)cc2)C(=O)N[C@@H](Cc2ccc(C(=O)O)cc2)C(=O)N[C@@H](CC2CCNCC2)C(=O)N[C@@H](CC2CCCCC2)C(=O)N[C@H](C(=O)N[C@H](CCC(=O)O)C(N)=O)CSCC(=O)N(C)[C@@H](CCC(=O)O)C(=O)N1C` [Peptide 5555_p176] ({CH2CO}-[NMeE][NMeNle][Aib][Cha][Phe(4-F)][dNMeD]YY[Phe(4-COOH)][Ala(piperidin-4-yl)][Cha]C[dE]-NH2; thioether N-12), the results for the IC50 in the data set with SARS-CoV-2 Delta strain and in the data set on SARS-CoV-2 Wuhan strain were 13.7 nM and 13.6 nM, respectively.
Turning to `CCCC[C@H]1C(=O)NC(C)(C)C(=O)N[C@@H](CC2CCCCC2)C(=O)N[C@@H](Cc2ccc(F)cc2)C(=O)N[C@H](CC(=O)O)C(=O)N[C@@H](Cc2ccc(O)cc2)C(=O)N[C@@H](Cc2ccc(O)cc2)C(=O)N[C@@H](CCCNC(N)=O)C(=O)N[C@H](CCCCN)C(=O)N[C@@H](CC2CCCCC2)C(=O)N[C@H](C(=O)N[C@H](CCC(=O)O)C(=O)NCCCC[C@H](NC(=O)CC[C@H](NC(=O)CCCCCCCCCCC(=O)O)C(=O)O)C(=O)O)CSCC(=O)N(C)[C@@H](CCC(=O)O)C(=O)N1C` [Peptide 5555_p234] ({CH2CO}-[NMeE][NMeNle][Aib][Cha][Phe(4-F)][dD]YY[Cit][dK][Cha]C[dE]-X4; thioether N-12), in the data set on SARS-CoV-2 Delta strain, the IC50 is 42 nM.
`CCCC[C@H]1C(=O)NC(C)(C)C(=O)N[C@@H](CC2CCCCC2)C(=O)N[C@@H](Cc2ccc(F)cc2)C(=O)N(C)[C@@H](CCC(=O)O)C(=O)N[C@@H](Cc2ccc(O)cc2)C(=O)N[C@@H](Cc2ccc(O)cc2)C(=O)N[C@@H](Cc2ccc(C(=O)O)cc2)C(=O)N[C@H](CCCNC(=N)N)C(=O)N[C@@H](CC2CCCCC2)C(=O)N[C@H](C(=O)N[C@H](CCC(=O)O)C(N)=O)CSCC(=O)N(C)[C@@H](CCC(=O)O)C(=O)N1C` [Peptide 5555_p039] ({CH2CO}-[NMeE][NMeNle][Aib][Cha][Phe(4-F)][NMeE]YY[Phe(4-COOH)][dR][Cha]C[dE]-NH2; thioether N-12): in “in vitro”, the CC50 at 72 h was greater than 100000 nM. Half-maximal inhibition in data set [2] (IC50) was put at 7.4 nM.
Taken in the same sequence, the figures for `CN1C(=O)CSC[C@@H](C(=O)N[C@H](CCC(=O)O)C(N)=O)NC(=O)[C@H](CC2CCCCC2)NC(=O)[C@H](CCCCN)NC(=O)[C@H](Cc2ccc(C(=O)O)cc2)NC(=O)[C@H](Cc2ccc(O)cc2)NC(=O)[C@H](Cc2ccc(O)cc2)NC(=O)[C@H](CCC(=O)O)N(C)C(=O)[C@H](Cc2ccc(F)cc2)NC(=O)[C@H](CC2CCCCC2)NC(=O)[C@H](CO)NC(=O)[C@H](Cc2ccccc2)N(C)C(=O)[C@@H]1CCC(=O)O` [Peptide 5555_p088] ({CH2CO}-[NMeE][NMeF]S[Cha][Phe(4-F)][NMeE]YY[Phe(4-COOH)]K[Cha]C[dE]-NH2; thioether N-12) were greater than 100000 nM and 11.4 nM.
Taken in the same sequence, the figures for `CN1C(=O)CSC[C@@H](C(=O)N[C@H](CCC(=O)O)C(=O)O)NC(=O)[C@H](CC2CCCCC2)NC(=O)[C@H](CC2CCNCC2)NC(=O)[C@H](Cc2ccc(C(=O)O)cc2)NC(=O)[C@H](Cc2ccc(O)cc2)NC(=O)[C@H](Cc2ccc(O)cc2)NC(=O)[C@H](CCC(=O)O)N(C)C(=O)[C@H](Cc2ccc(F)cc2)NC(=O)[C@H](CC2CCCCC2)NC(=O)C(C)(C)NC(=O)[C@H](Cc2ccccc2)N(C)C(=O)[C@@H]1CCC(=O)O` [Peptide 5555_p119] ({CH2CO}-[NMeE][NMeF][Aib][Cha][Phe(4-F)][NMeE]YY[Phe(4-COOH)][Ala(piperidin-4-yl)][Cha]C[dE]-OH; thioether N-12) were greater than 100000 nM and 18.2 nM.
In turn, `CCCC[C@H]1C(=O)NC(C)(C)C(=O)N[C@@H](CC2CCCCC2)C(=O)N[C@@H](Cc2ccc(F)cc2)C(=O)N[C@H](CC(=O)O)C(=O)N[C@@H](Cc2ccc(O)cc2)C(=O)N[C@@H](Cc2ccc(O)cc2)C(=O)N[C@@H](CCCNC(N)=O)C(=O)N[C@H](CCCCN)C(=O)N[C@@H](CC2CCCCC2)C(=O)N[C@H](C(=O)N[C@H](CCC(=O)O)C(=O)NCCCC[C@H](NC(=O)CC[C@H](NC(=O)CCCCCCCCCCCCC(=O)O)C(=O)O)C(=O)O)CSCC(=O)N(C)[C@@H](CCC(=O)O)C(=O)N1C` [Peptide 5555_p235] ({CH2CO}-[NMeE][NMeNle][Aib][Cha][Phe(4-F)][dD]YY[Cit][dK][Cha]C[dE]-X5; thioether N-12) came in with an IC50 with SARS-CoV-2 Delta strain of 57 nM.
Turning to `CCCC[C@@H](C(=O)NC(C)(C)C(=O)N[C@@H](CC1CCCCC1)C(=O)N[C@@H](Cc1ccc(F)cc1)C(=O)N[C@H](CC(=O)O)C(N)=O)N(C)C(=O)[C@H](CCC(=O)O)N(C)C(=O)CSCC[C@H](NC(=O)[C@H](CC1CCCCC1)NC(=O)[C@@H](CCCCN)NC(=O)[C@H](CCCNC(N)=O)NC(=O)[C@H](Cc1ccc(O)cc1)NC(=O)[C@@H](C)Cc1ccc(O)cc1)C(=O)N[C@H](CCC(=O)O)C(=O)N[C@H](CCCCNC(=O)CCCCCCCCCCC(=O)O)C(N)=O` [Peptide 5555_p221] (I: X1-Y[Cit][dK][Cha][hCys][dE][dK](C12 diacid)-NH2 / II: [NMeE][NMeNle][Aib][Cha][Phe(4-F)][dD]-NH2; linker I:5-II:N via X2), the IC50 in the data set on SARS-CoV-2 Delta strain came to 18.6 nM; with SARS-CoV-2 Wuhan strain, 17.7 nM.
For `CCCC[C@H]1C(=O)NC(C)(C)C(=O)N[C@@H](CC2CCCCC2)C(=O)N[C@@H](Cc2ccc(F)cc2)C(=O)N(C)[C@@H](CCC(=O)O)C(=O)N[C@@H](Cc2ccc(O)cc2)C(=O)N[C@@H](Cc2ccc(O)cc2)C(=O)N[C@@H](Cc2ccc(C(=O)O)cc2)C(=O)N[C@H](CCCNC(=N)N)C(=O)N[C@@H](CC2CCCCC2)C(=O)N[C@H](C(N)=O)CSCC(=O)N(C)[C@@H](CCC(=O)O)C(=O)N1C` [Peptide 5555_p005] ({CH2CO}-[NMeE][NMeNle][Aib][Cha][Phe(4-F)][NMeE]YY[Phe(4-COOH)][dR][Cha]C-NH2; thioether N-12), in “in vitro”, the CC50 at 72 h is greater than 100000 nM. Besides, the concentration for half-maximal inhibition (IC50) in data set [2] came out at 5 nM.
`CN1C(=O)CSC[C@@H](C(=O)N[C@H](CCC(=O)O)C(N)=O)NC(=O)[C@H](CC2CCCCC2)NC(=O)[C@H](CCCCN)NC(=O)[C@H](CCCNC(N)=O)NC(=O)[C@H](Cc2ccc(O)cc2)NC(=O)[C@H](Cc2ccc(O)cc2)NC(=O)[C@H](CCC(=O)O)N(C)C(=O)[C@H](Cc2ccc(F)cc2)NC(=O)[C@H](CC2CCCCC2)NC(=O)[C@H](CO)NC(=O)[C@H](Cc2ccccc2)N(C)C(=O)[C@@H]1CCC(=O)O` [Peptide 5555_p092] ({CH2CO}-[NMeE][NMeF]S[Cha][Phe(4-F)][NMeE]YY[Cit]K[Cha]C[dE]-NH2; thioether N-12) yielded an Anti-SARS-CoV-2 activity in data set [1] (VeroE6/TMPRSS2 cells, JPN/TY/WK-521 strain, 24 hours) of 2. In “in vitro”, this compound returned a CC50 at 72 h greater than 100000 nM. Besides, the IC50 in data set [2] is 4.1 nM.
Take `CCCC[C@H]1C(=O)NC(C)(C)C(=O)N[C@@H](CC2CCCCC2)C(=O)N[C@@H](Cc2ccc(F)cc2)C(=O)N(C)[C@H](CCC(=O)O)C(=O)N[C@@H](Cc2ccc(O)cc2)C(=O)N[C@@H](Cc2ccc(O)cc2)C(=O)N[C@@H](Cc2ccc(C(=O)O)cc2)C(=O)N[C@@H](CC2CCNCC2)C(=O)N[C@@H](CC2CCCCC2)C(=O)N[C@H](C(=O)N[C@H](CCC(=O)O)C(N)=O)CSCC(=O)N(C)[C@@H](CCC(=O)O)C(=O)N1C` [Peptide 5555_p175] ({CH2CO}-[NMeE][NMeNle][Aib][Cha][Phe(4-F)][dNMeE]YY[Phe(4-COOH)][Ala(piperidin-4-yl)][Cha]C[dE]-NH2; thioether N-12): the 50% inhibitory concentration (IC50) in the data set on SARS-CoV-2 Wuhan strain amounted to 34.5 nM.
